# Test: Visual dissolution of ibuprofen in SEDDS pre-concentrate
# Type: physicochemical
# Method: The medium chain fatty acid esters and oil were weighed into a 2000 mL glass beaker. Subsequently, a magnetic stirrer was added to the beaker. The medium chain fatty acid esters and oil were blended to uniformity for 5 minutes with the magnetic stirrer set at 5. […] […] The pre-concentrate was observed 24 hours later to ensure that the ibuprofen was still dissolved.
smiles,measurement,setting,value
"CC(C)Cc1ccc(C(C)C(=O)O)cc1 (centres unmarked) [Ibuprofen, ibuprofen]",Time ibuprofen remained dissolved in the pre-concentrate,room temperature,at least 24 hours
same,Ibuprofen dissolved in the pre-concentrate components,with heating,about 15.0%

# — patent US20230277464A1, “TABLET DOSAGE FORMS FOR LIPID-BASED DRUG DELIVERY SYSTEMS” (ABITEC Corporation, priority 2022, published 2023)
